Assay results from patent US7511036B2, “Dihydrothiazine prodrugs of thiazolium agents” (Synvista Therapeutics, Inc., priority 2003, dated 2009).
Structures can show the parent of a compound that is named as a salt.

Tests used:
[1] = system: elderly patients with pulse pressures greater than 60 mm Hg; assay: Phase IIa clinical trial; assay type: in vivo, human; details: for left ventricular mass: Phase IIa clinical trial, echocardiography
Text: (§1) Cardiovascular risk correlates more closely with the systolic and the pulse pressure than with the diastolic pressure. In diabetic patients, the cardiovascular risk profile of diabetic patients is strongly correlated to duration of diabetes, glycemic control and blood pressure. Structural matrix proteins contribute to the function of vessels and the heart, and changes in the physical behavior of cardiovascular walls are believed to be important determinants of circulatory function. In elderly individuals, the loss of compliance in the aorta leads to systolic hypertension and isolated systolic hypertension, which in turn expands the arterial wall and thereby diminishes the dynamic range of elasticity. […] These studies indicate that prodrugs of such thiazolium compounds should have a similar effect.
Pulse pressure is the difference between systolic and diastolic blood pressure. In a young human, systolic pressure is typically 120 mm Hg and diastolic pressure is 80 mm Hg, resulting in a pulse pressure of 40 mm Hg. With age, in many individuals pulse pressure increases, largely due to the increase in systolic pressure that results from stiff vessel disease. In individuals with pulse pressure greater than 60 mm Hg there is an increased risk of death from cardiovascular morbidities. […] This decrease in pulse pressure was believed to be due primarily to the effect of the agent on lowering the systolic blood pressure.
When the heart pumps blood into the vascular system, the ability of the arteries to expand helps to push blood through the body. When arteries become stiff, as they do in the natural process of aging, the ability of the arteries to expand is diminished which also has consequences for the heart. The heart has to work harder to pump the blood into the stiff arteries, and it eventually hypertrophies (enlarges in size) to accomplish this. A hypertrophied heart is an inefficient pump, and is one of the disorders that leads to congestive heart failure. […] Such a compound can be provided by administration of an N-formyl thiazine compound, (i.e., 2-hydroxy-5,6-dimethyl-2-phenyl-2,3-dihydro-(1,4)thiazine-4-carbaldehyde) and conversion of the compound under, for example, acidic conditions in the stomach, to the corresponding thiazolium salt. The potential clinical benefit of this is to lessen the effort that the heart must expend to push blood throughout the body. The effect is also believed to contribute to preventing hypertrophy and subsequent inefficiency of the heart, which inefficiency would contribute to congestive heart failure.
Atherosclerosis is a disease that involves deposition of blood lipids in plaque in the arteries throughout the body. In coronary arteries, accumulation of plaque progressively leads to reduced coronary flow, with occlusion of the arteries causing focal death of cardiac tissue (myocardial infarction, heart attack). If the amount of tissue that dies is large enough, death ensues. […] Reducing local deposits of plaque should eventually lessen the risk of myocardial infarction and death due to heart attacks.

TGFbeta = assay: In situ hybridization studies, TGFbeta expression; assay type: in vivo
Text: as §1

[2] = system: collagen in cardiovascular tissues; assay: Mass of collagen in cardiovascular tissues after treatment; details: in vivo
Text: as §1

Rhesus monkeys [3] = details: pilocarpine-stimulated accommodation; see the '112 application; cited from earlier work
Type IV collagen = assay: In situ hybridization studies, Type IV collagen expression; assay type: in vivo
Text: as §1

Rhesus monkeys [4] = details: drug treated vs. control eye, baseline and pilocarpine-stimulated; see the '112 application; cited from earlier work
dog model for diabetes = assay: Dog model for diabetes, indicators of ventricular elasticity; assay type: in vivo; details: indicator of ventricular elasticity
Text: as §1

[5] = Conversion of dihydrothiazine to thiazolium chloride under acidic conditions; assay type: physicochemical
Procedure: The following experiment provides evidence that thiazine structures related to compound la can be converted under acidic conditions to thiazolium structures, and thus can serve as pro-drug forms of thiazolium agents.
Compound Ia (2.48 mmol, 0.620 g) was weighed into a 100 mL round bottom flask equipped with magnetic stir bar. Methanol (40 mL) was added, and the solution was stirred until all solid was dissolved. Aqueous hydrochloric acid was added (1N, 3.968 mmol, 4.0 mL) and the reaction solution stirred at ambient temperature for 48 hours. The methanol was removed in vacuo, and the residue was diluted with 25 mL of distilled water. The aqueous layer was extracted with methyl t-butyl ether (2×20 mL). The aqueous layer was concentrated to dryness in vacuo and the residue was crystallized with acetonitrile, methyl-t-butyl-ether (1:1). The crystals were collected via filtration to give 598 mg (90% yield) of 4,5-dimethyl-3-(2-oxo-2-phenylethyl)-thiazolium chloride. […]
In a 15 mL round bottom flask, stirred with a magnetic stirrer, was charged 36 mg (0.16 mmol) of compound Ib (prepared as described by Thornalley et al., Biochemical Pharmacology, vol. 57,pp 303-308, 1999), 2 mL of 1% hydrochloric acid and 2 mL of Ethyl Acetate. Since there was no reaction as monitored by HPLC, 2 mL of 5N Hydrochloric acid, and 2 mL of methanol was added, and the flask was heated to 35° C. […]

Row | Structure (SMILES) | left ventricular mass [1] | left ventricular mass ([1]; listed as 3-[2-phenyl-2-oxoethyl]-4,5-dimethyl-thiazolium chloride salt) | stiffness of arteries (ratio of stroke volume (ml) to pulse pressure (mm Hg)) ([1]; Phase IIa clinical trials) | amount of circulating triglycerides (lipids) ([1]; Phase IIa trial) | pulse pressure ([1]; Phase IIa trial, elderly patients with pulse pressures greater than 60 mm Hg, statistically significant) | expression of TGFbeta (TGFbeta) | mass of collagen in cardiovascular tissues [2] | improvement in accommodation (Rhesus monkeys [3]) | expression of Type IV collagen (Type IV collagen) | improvement in fluid outflow facility (ophthalmologic function) (Rhesus monkeys [4]) | end diastolic pressure (dog model for diabetes) | end diastolic volume (dog model for diabetes) | conversion to thiazolium under acidic conditions ([5]; 1% hydrochloric acid and ethyl acetate, monitored by HPLC) | time until the conversion to thiazolium chloride was finished ([5]; after adding 5N hydrochloric acid and methanol, 35° C., HPLC)
1 | Cc1sc[n+](CC(=O)c2ccccc2)c1C [3-[2-phenyl-2-oxoethyl]-4,5-dimethyl-thiazolium salt] | reduction of left ventricular mass | reduce left ventricular mass | reverse the stiffness of arteries | increased the amount of circulating triglycerides | reduced pulse pressure | reduces the expression | reduction in the mass of collagen | Improvement in accommodation has been illustrated | reduces the expression | improvement has been illustrated | returned to a value at about the mid-point between the disease impaired value and the value for control dogs | returned to a value at about the mid-point between the disease impaired value and the value for control dogs | – | –
2 | O=CN1C=CSC(O)(c2ccccc2)C1 (centres unmarked) [Ib, 2-Hydroxy-2-Phenyl-2,3-Dihydro-(1,4)thiazine-4-carbaldehyde] | – | – | – | – | – | – | – | – | – | – | – | – | no reaction | about 15 h
